Source: patent US7615361B2, “Toxicity screening methods” (Ceetox, Inc., priority 2006, dated 2009)

Legend:
[1] = tested on: H4IIE cells; assay: Cell number (propidium iodide); type: cell-based, rat; conditions: rat, 24 h
In short: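 Rat hepatoma H4IIE cells exposed to compound in complete medium, then lysed with Triton X-100 containing propidium iodide; fluorescence read at 540/610 nm. Blank-subtracted RFU expressed as percent of untreated control cells, means of n=3-7.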

[2] = tested on: iNOS; assay: bDNA analysis of mRNA in rat cardiomyocytes; type: cell-based
Procedure: Nitric oxide was also evaluated since it has been implicated in many pathways related to oxidative stress, apoptosis, and cardiac hypertrophy. More specifically, adriamycin induced mitochondrial toxicity is reduced in the presence of increased iNOS. Thus, a compensatory response to mitochondrial toxicity may be an increase in iNOS (Chaiswing et al., 2005). In this example, rat cardiomyocytes exposed to adriamycin induced iNOS expression more than 15-fold (FIG. 27C).
bDNA Sample Collection and Storage: After 48 hr compound exposure in 96-well plates, 50 μL of stock lysis mixture was added to each 100 μL well. Plates were mixed using a DPC 5 Micromix plate shaker at 37° C. for 15-30 minutes to ensure complete lysis of cells. Cell lysis was confirmed using a Nikon inverted microscope. Plates were stored at −80° C. until further analysis.
bDNA Analysis (Day 1): All solutions were prepared fresh on the day of analysis. Quantigene® bDNA kit components were brought to room temperature prior to use. […]
Substrate working solution was prepared by adding 30 μL of 10% Lithium Lauryl Sulfate to 10 mL Substrate solution per plate. […] Upon completion of last incubation, luminescence was measured using a Packard Fusion or equivalent plate reader with plate heater set to 46° C. Data were collected as relative light units (RLU) and expressed as fold change relative to controls after background subtract.

[3] = tested on: BAX; assay: bDNA analysis of mRNA in rat cardiomyocytes; type: cell-based; conditions: after 1 hr at 10 μM
Procedure: (§1) Bcl2 is often induced in response to BAX a protein that promotes apoptosis.
(§2) […] Plates were mixed using a DPC 5 Micromix plate shaker at 37° C. for 15-30 minutes to ensure complete lysis of cells. Cell lysis was confirmed using a Nikon inverted microscope. Plates were stored at −80° C. until further analysis.
(§3) bDNA Analysis (Day 1): All solutions were prepared fresh on the day of analysis. Quantigene® bDNA kit components were brought to room temperature prior to use. Chemicals not supplied by Genospectra were obtained from Sigma-Aldrich.
(§4) On the day of analysis, Target Probe Sets were prepared for probe gene sets by adding 25 μL of each probe set component (CE, LE, BL) to 425 μL stock lysis solution using the following probe set concentrations: CE (50 fmol/μL), LE (200 fmol/μL), BL (100 fmol/μL).
(§5) Cell lysis plates were removed from freezer storage and thawed. […] Next, 10 μL of the appropriate Target Probe Set (PS2) was added to each appropriate well of the Capture Plate. Plates were tightly sealed using a plate sealer and incubated at 53° C. for 16-20 hr (overnight).
(§6) bDNA Analysis (Day 2): Wash buffer was prepared in ultra-pure water using 0.1×Saline-Sodium Citrate (SSC) and 0.03% Lithium Lauryl Sulfate (LLS). Amplifier working solution was prepared by adding 10 μL Amplifier to 10 mL Amplifier Diluent per plate.
(§7) Plates were removed from incubator and washed three times with 300 μL wash buffer. […]

[4] = tested on: Bcl2; assay: bDNA analysis of mRNA in rat cardiomyocytes; type: cell-based; conditions: after 6 hr at 10 μM
Procedure: as §1, §2, §3, §4, §5, §6, §7

[5] = MemTox membrane leakage (AK / α-GST); type: cell-based; conditions: human, HUVEC, read-out: MemTox TC50
Procedure: Membrane Leakage (α-Glutathione S-transferase and/or Adenylate Kinase): The presence of Adenylate Kinase (AK) or α-Glutathione S-transferase (α-GST), both enzyme leakage markers, was measured in the culture medium using an activity assay for Adenylate Kinase and/or an ELISA assay for α-GST. At the end of the exposure period, the medium covering the cells in each well was removed and placed into new 96-well plates with appropriate labeling. […] Luminescence (AK) values were measured with a Packard Fusion or equivalent plate reader, and absorbance (α-GST) values were measured with a Packard SpectraCount™ or equivalent reader at 450 nm and reference absorbance at 650 nm.
Membrane Leakage (α-Glutathione S-transferase and/or Adenylate Kinase): Leakage of Adenylate Kinase or α-GST from the cell into the culture medium was determined by collecting the culture medium at the end of the exposure period. Thus, the values measured represent total enzyme leakage lost over the exposure period. The control for 100% dead or maximum enzyme release was based on cells treated with 1 mM digitonin at the time of dosing. Percent dead cells relative to digitonin treated cells was determined and then subtracted from 100% to yield the percent live cells.
Dosing solutions were prepared in complete culture medium.

Compound	CC50 [1]	iNOS expression induction [2]	BAX increase [3]	Bcl2 induction [4]	CC50 at 24 h [5]
COc1cccc2c1C(=O)c1c(O)c3c(c(O)c1C2=O)C[C@@](O)(C(=O)CO)C[C@@H]3O[C@H]1C[C@H](N)[C@H](O)[C@H](C)O1 [ADRIAMYCIN, Adriamycin]	9 µM	more than 15 fold	3 fold	6 fold	–
CC[C@@]1(O)C(=O)OCc2c1cc1n(c2=O)Cc2cc3ccccc3nc2-1 [CAMPTOTHECIN, Camptothecin]	–	–	–	–	13 µM
